Measured values as given in patent US20040024024A1, “Aromatic sulfone hydroxamates and their use as protease inhibitors” (priority 2001, published 2004).
“And” between values parts separate entries of the source, which are not always exact repeats. Identical values can stand only once. Counter-ions that a name gives are not always drawn.

How the values were obtained:
Assay type in all cases: biochemical
Human recombinant MMP-13 = target: T1, Human recombinant MMP-13 (Homo sapiens, UniProt P45452); test: In vitro MMP inhibition, IC50 determination (fluorogenic substrate I)
T1 construct: made in house; host or cells: baculovirus / insect cells
In short: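 Fluorescence at 415 nm (excitation 328 nm) reports Gly-Leu cleavage of 4 μM quenched methoxycoumarin peptide substrate I. Human recombinant MMP-13, activated by trypsin or APMA, was incubated at room temperature with varied inhibitor concentrations in pH 7.5 Tris/NaCl/CaCl2 buffer; IC50 derived from reduced fluorescence.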

Human recombinant MMP-2 = target: T2, Human recombinant MMP-2 (Homo sapiens, UniProt P08253); test: as above
T2 construct: made in house; host or cells: MMP-2-transfected p2AHT2 cells
T2 sequence (P08253 110-660): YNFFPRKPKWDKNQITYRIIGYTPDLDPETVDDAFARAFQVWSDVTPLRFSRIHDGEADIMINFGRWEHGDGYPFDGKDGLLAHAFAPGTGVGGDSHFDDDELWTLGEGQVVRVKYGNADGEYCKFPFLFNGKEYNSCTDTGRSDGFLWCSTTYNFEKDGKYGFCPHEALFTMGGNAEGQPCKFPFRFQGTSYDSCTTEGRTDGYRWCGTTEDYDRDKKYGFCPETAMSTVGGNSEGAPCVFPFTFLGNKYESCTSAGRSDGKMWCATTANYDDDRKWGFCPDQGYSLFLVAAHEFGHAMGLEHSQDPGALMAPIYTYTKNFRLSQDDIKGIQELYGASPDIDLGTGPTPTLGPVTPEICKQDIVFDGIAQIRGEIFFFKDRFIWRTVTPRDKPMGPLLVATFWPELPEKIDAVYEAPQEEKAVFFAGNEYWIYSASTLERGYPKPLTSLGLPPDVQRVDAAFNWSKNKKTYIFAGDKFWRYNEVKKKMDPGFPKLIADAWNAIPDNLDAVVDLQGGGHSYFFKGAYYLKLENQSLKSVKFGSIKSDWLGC
In short: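 APMA- or trypsin-activated recombinant MMP-2 was incubated at room temperature with serial inhibitor dilutions in Tris buffer pH 7.5 (100 mM NaCl, 10 mM CaCl2, 0.05% Brij), with DMSO from 1% stocks, and 4 μM substrate I. Cleavage was read by fluorescence at 328/415 nm; IC50 was taken from the loss of fluorescence versus inhibitor concentration.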

Human recombinant MMP-9 = target: T3, Human recombinant MMP-9 (Homo sapiens, UniProt P14780); test: In vitro MMP inhibition, Ki determination (fluorogenic substrate II)
T3 construct: made in house; host or cells: MMP-9-transfected HT1080 cells (spent media)
Procedure: Several hydroxamates and salts thereof were analyzed in in vitro assays to determine their ability to inhibit the MMP cleavage of peptide substrates. Inhibition (Ki) and IC50 constants were calculated from the assayed hydroxamate-MMP interactions.
Human recombinant MMP-1, MMP-2, MMP-9, MMP-13, and MMP-14 were used in this assay. All enzymes were prepared in Assignee's laboratories following usual laboratory procedures. Protocols for the preparation and use of these enzymes are available in the scientific literature. See, e.g., Enzyme Nomenclature (Academic Press, San Diego, Calif., 1992) (and the citations therein). See also, Frije et al., J. Biol. Chem., 26(24), 16766-73 (1994).
The MMP-9 proenzyme was purified by gelatin Sepharose chromatography from spent media of MMP-9-transfected HT1080 cells provided by Dr. Howard Welgus of Washington University (St. Louis, Mo.).
All MMPs were activated using 4-aminophenylmercuric acetate (“APMA”, Sigma Chemical, St. Louis, Mo.) or trypsin. MMP-9 also was activated using human recombinant MMP-3 (purified in Assignee's laboratory following standard cloning and purification techniques).
Two fluorogenic, methoxycoumarin-containing polypeptide substrates were used in the MMP inhibition assays:
MCA-ArgProLeuGlyLeuDpaAlaArgGluArgNH2 (II)
Here, “Dpa” is 3-(2,4-dinitrophenyl)-L-2,3-diaminopropionyl group, and “MCA” is 7-methoxycoumarin-4-yl acetyl. Substrate (I) was purchased from Baychem (Redwood City, Calif.), and substrate II was prepared Assignee's laboratory. Substrate I was used in the IC50 determination assays, while substrate II was used in the Ki determination assays. In the absence of MMP inhibitory activity, either substrate is cleaved at the Gly-Leu peptide bond. This cleavage separates the highly fluorogenic peptide from the 2,4-dinitrophenyl quencher, thus resulting in increase of fluorescent intensity.
The stock solutions of the assayed hydroxamates (or salts thereof) were prepared in 1% dimethyl sulfoxide (DMSO). These stock solutions were diluted in Buffer A (100 mM Tris-HCl, 100 mM NaCl, 10 mM CaCl2, 0.05% polyoxyethylene 23 lauryl ether, pH 7.5) to obtain solutions with different hydroxamate concentrations, i.e., assay solutions with different concentrations of the assayed MMP inhibitory compound. The experiment controls contained the same amount of Buffer A/DMSO as the assayed sample, but contained no hydroxamate (or salt thereof).
The assays from which the Ki determinations were made were performed as follows. The assayed hydroxamate samples were incubated in separate wells of untreated white polystyrene plates (Nunc Nalgene International, Rochester, N.Y.), and analyzed on a Tecan SpectraFlour Plus plate reader. The excitation wavelength was 330 nm, and the emission wavelength—420 nm. All samples (assayed hydroxamates and controls) were incubated in separate plate wells at room temperature for 1 hr in the presence of 4 μM of MMP substrate (II). In the absence of MMP inhibitory activity, substrate II was cleaved at the Gly-Leu bond resulting in an increase of relative fluorescence. Inhibition was observed as a reduced rate of this increase in relative fluorescence. The various hydroxamates were analyzed using a single low enzyme concentration with a single substrate concentration fixed at or below the Km. This protocol is a modification of method by Knight et al., FEBS Lett., 296(3), 263-266 (1992). Apparent inhibitory constants were determined by non-linear regression of reaction velocity as a function of inhibitor and enzyme concentration using Morrison's equation, as described by Kuzmic, Anal. Biochem. 286, 45-50 (2000). Modifications were made in the non-linear regression method to allow a common control reaction rate and effective enzyme concentration to be shared between all dose-response relationships on a given assay plate. […]

[1] = substrate (I) 4 μM, room temperature, values not in parenthesis
[2] = substrate (II) 4 μM, 1 hr room temperature, apparent Ki, values in parenthesis

T3 sequence (P14780 107-707 limits assumed): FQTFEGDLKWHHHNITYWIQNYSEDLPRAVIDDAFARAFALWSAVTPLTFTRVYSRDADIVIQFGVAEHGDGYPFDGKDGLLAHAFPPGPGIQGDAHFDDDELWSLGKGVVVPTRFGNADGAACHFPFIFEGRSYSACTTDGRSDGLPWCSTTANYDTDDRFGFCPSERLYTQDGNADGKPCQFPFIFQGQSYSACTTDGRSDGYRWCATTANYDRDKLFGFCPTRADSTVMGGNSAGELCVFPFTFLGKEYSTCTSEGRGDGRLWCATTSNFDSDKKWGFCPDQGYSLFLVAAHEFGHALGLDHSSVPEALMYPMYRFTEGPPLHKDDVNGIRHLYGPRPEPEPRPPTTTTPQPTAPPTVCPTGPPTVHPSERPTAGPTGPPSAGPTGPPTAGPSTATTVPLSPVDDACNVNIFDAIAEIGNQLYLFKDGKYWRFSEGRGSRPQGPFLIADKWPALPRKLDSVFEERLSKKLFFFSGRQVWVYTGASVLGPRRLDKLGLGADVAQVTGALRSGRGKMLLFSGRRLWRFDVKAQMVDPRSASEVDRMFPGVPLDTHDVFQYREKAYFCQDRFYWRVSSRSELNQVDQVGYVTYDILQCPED

IC50 (Human recombinant MMP-13; [1]) [nM]	IC50 (Human recombinant MMP-2; [1]) [nM]	Ki (Human recombinant MMP-9; [2])	IC50 (Human recombinant MMP-13; value outside parenthesis) [nM]	IC50 (Human recombinant MMP-2; value outside parenthesis) [nM]	Ki (Human recombinant MMP-9; value in parenthesis) [nM]	SMILES
0.5	112	585 nM	–	–	–	O=C(NO)C1(S(=O)(=O)c2ccc(OCCc3cccc(-c4ccccn4)c3)cc2)CCOCC1 [Example 40]
2	357	1470 nM	–	–	–	CCN1CCC(C(=O)NO)(S(=O)(=O)c2ccc(OCCCc3nc(-c4ccc(OC(F)(F)F)cc4)no3)cc2)CC1 [Example 41, 1-ethyl-N-hydroxy 4-{[4-(3-{3-[4-(trifluoromethoxy)phenyl]-1,2,4-oxadiazol-5-yl}propoxy)phenyl]sulfonyl}piperidine-4-carboxamide Hydrochloride]
3.1	321	418 nM	–	–	–	CCN1CCC(C(=O)NO)(S(=O)(=O)c2ccc(OCCCc3cccc(-c4ccccc4)c3)cc2)CC1 [Example 46]
0.2	18.2	119 nM and 309 nM	–	–	–	COCCN1CCC(C(=O)NO)(S(=O)(=O)c2ccc(OCCCc3cc(-c4ccc(F)cc4F)cs3)cc2)CC1 [Example 47, 4-[(4-{3-[4-(2,4-difluorophenyl)thien-2-l]propoxy}phenyl)sulfonyl]-N-hydroxy-1-(2-methoxyethyl)piperidine-4-carboxamide Hydrochloride]
0.2	105	159 nM	–	–	–	COCCN1CCC(C(=O)NO)(S(=O)(=O)c2ccc(OCCCn3nnc(-c4ccc(OC(F)(F)F)cc4)n3)cc2)CC1 [Example 48]
0.3	274	1950 nM	–	–	–	O=C(NO)C1(S(=O)(=O)c2ccc(OCCCn3nnc(-c4ccc(OC(F)(F)F)cc4)n3)cc2)CCN(C2CC2)CC1 [Example 49]
0.2	252	98.7 nM	–	–	–	O=C(NO)C1(S(=O)(=O)c2ccc(OCCCc3nc(-c4ccc(OC(F)(F)F)cc4)no3)cc2)CCN(C2CC2)CC1 [Example 51, 1-cyclopropyl-N-hydroxy-4-{[4-(3-{3-[4-(trifluoromethoxy)phenyl]-1,2,4-oxadiazol-5-yl}propoxy)phenyl]sulfonyl}piperidine-4-carboxamide Hydrochloride]
1	384	2900 nM	–	–	–	O=C(NO)C1(S(=O)(=O)c2ccc(OCCCn3nnc(-c4ccc(OC(F)(F)F)cc4)n3)cc2)CCN(CC2CC2)CC1 [Example 53]
10.5	35.5	388 nM	–	–	–	NC(=O)c1cccc(OCCOc2ccc(S(=O)(=O)C3(C(=O)NO)CCOCC3)cc2)c1 [Example 54]
–	–	–	2.7	91.4	788	CC(C)C(=O)c1cccc(CCCOc2ccc(S(=O)(=O)C3(C(=O)NO)CCOCC3)cc2)c1 [Example 95]
–	–	–	3.3	185	473	O=C(NO)C1(S(=O)(=O)c2ccc(OCCCc3cccc(-c4ccco4)c3)cc2)CCOCC1 [Example 97]
–	–	–	1.8	316	1450	O=C(NO)C1(S(=O)(=O)c2ccc(OCCCc3cccc(Cc4ccccc4)c3)cc2)CCOCC1 [Example 98]
–	–	–	0.2	20.3	161	O=C(NO)C1(S(=O)(=O)c2ccc(OCCc3cccc(-c4ccncc4)c3)cc2)CCOCC1 [Example 113]
–	–	–	0.9	312	1980	O=C(NO)C1(S(=O)(=O)c2ccc(OCCc3cccc(-c4ccccc4F)c3)cc2)CCOCC1 [Example 115]
–	–	–	1.4	383	2130	O=C(NO)C1(S(=O)(=O)c2ccc(OCCc3cccc(-c4ccc(F)cc4)c3)cc2)CCOCC1 [Example 123]
–	–	–	0.2	27.3	146	O=C(NO)C1(S(=O)(=O)c2ccc(OCCc3cccc(-c4cccnc4)c3)cc2)CCOCC1 [Example 125]
–	–	–	5.5	1380	4230	Cc1ccc(-c2cccc(CCOc3ccc(S(=O)(=O)C4(C(=O)NO)CCOCC4)cc3)c2)cc1 [Example 127]
–	–	–	0.4	208	1390	O=C(NO)C1(S(=O)(=O)c2ccc(OCCCc3cccc(-c4ccc(F)cc4)c3)cc2)CCN(C2CC2)CC1 [Example 139]
–	–	–	0.5	48	754	COCCN1CCC(C(=O)NO)(S(=O)(=O)c2ccc(OCCCc3cccc(-c4ccc(F)cc4)c3)cc2)CC1 [Example 140]
–	–	–	7.5	58.6	310	O=C1Nc2ccc(-c3noc(CCCOc4ccc(S(=O)(=O)C5(C(=O)NO)CCN(C6CC6)CC5)cc4)n3)cc21 [Example 142]
–	–	–	28.3	4750	7970	O=C(NO)C1(S(=O)(=O)c2ccc(OCCCc3cccc(-c4ccc(OC(F)(F)F)cc4)c3)cc2)CCOCC1 [Example 147]
–	–	–	3.1	272	427	O=C(NO)C1(S(=O)(=O)c2ccc(OCCCc3cccc(-c4ccccn4)c3)cc2)CCOCC1 [Example 148]
–	–	–	1.3	77.1	94.5	O=C(NO)C1(S(=O)(=O)c2ccc(OCCCc3cccc(-c4ccncc4)c3)cc2)CCOCC1 [Example 149]
–	–	–	0.6	136	125	O=C(NO)C1(S(=O)(=O)c2ccc(OCCCc3cccc(-c4cccnc4)c3)cc2)CCOCC1 [Example 150]

SMILES	IC50 (Human recombinant MMP-13; [1]) [nM]	IC50 (Human recombinant MMP-2; [1]) [nM]	Ki (Human recombinant MMP-9; [2])	IC50 (Human recombinant MMP-13; value outside parenthesis) [nM]	IC50 (Human recombinant MMP-2; value outside parenthesis) [nM]	Ki (Human recombinant MMP-9; value in parenthesis) [nM]
O=C(NO)C1(S(=O)(=O)c2ccc(OCCCc3nc(-c4ccc(OC(F)(F)F)cc4)no3)cc2)CCOCC1 [Example 31, tetrahydro-N-hydroxy-4-[[4-[3-[3[4-(trifluoromethoxy)phenyl]-1,2,4-oxadiazol-5-yl]propoxy]phenyl]sulfonyl]-2H-pyran-4-carboxamide]	2.1	346	1600 nM	–	–	–
O=C(NO)C1(S(=O)(=O)c2ccc(OCCCc3cccc(-c4ccc(F)cc4)c3)cc2)CCOCC1 [Example 39]	0.9	1300	2360 nM	–	–	–
COCCN1CCC(C(=O)NO)(S(=O)(=O)c2ccc(OCCCc3nc(-c4ccc(OC(F)(F)F)cc4)no3)cc2)CC1 [Example 42]	0.3	100	662 nM	–	–	–
